Source: patent US11440907B1 (Merck Patent GmbH, priority 2018, dated 2022)

Assays:
Type in all cases: cell-based
[1] = tested on: XBP1(u)-luciferase splicing reporter in HepG2 hepatoma cells; experiment: HepG2 XBP1 reporter assay (XBP1(u)-Luc); settings: Homo sapiens; for IC50: 6 h, six hours after addition of compound; for EC50: 6 hours after compound addition, Table 3, read-out: XBP1-luc HepG2 1 EC50
[2] = tested on: NCI-H929 (Multiple myeloma cells); experiment: Cell viability (ATPLite) in NCI-H929; settings: Homo sapiens, 96 hours
Method: Cells were removed from liquid nitrogen storage, thawed and expanded in appropriate growth media. Once expanded, cells were seeded in 384-well tissue culture treated plates at 500 cells per well. After 24 hours, cells were treated for either 0 hours or treated for 96 hours with a testing compound (at the concentrations of 100 nM and 2 uM). At the end of either 0 hours or 96 hours, cell status was analyzed using ATPLite (Perkin Elmer) to assess the biological response of cells to the testing compound.

[3] = tested on: β-catenin-TCF-mediated reporter transcription activity in Colo 205 cells; experiment: Colo 205 reporter assay (TCF/LEF promoter-driven firefly luciferase); settings: Homo sapiens; Colo 205 TCF/LEF luciferase reporter, 5 hours after compound addition, 384 well; read-out: Colo205 IC50

IC50 [1] [µM]	IC50 [2] [µM]	IC50 [3] [µM]	EC50 [1] [µM]	SMILES
< 0.6	1 to 10	–	–	C#CCOc1cc(Cl)c(C2COCCCN2c2cc(C)nc(N)n2)cc1OC [D-60]
≥ 5	≥ 25	–	–	Cc1cc(N2CCCOC[C@H]2c2cc3c(cc2Cl)NCCC3)nc(N)n1 [D-143]
≥ 5	≥ 25	–	–	CCOC(=O)[C@@]1(C)CNc2cc(Cl)c([C@@H]3COCCCN3c3cc(C)nc(N)n3)cc2O1 [D-157]
< 0.6	< 1	–	–	COc1ccc(C2COCCCN2c2cc(C)nc(N)n2)c(Cl)c1 [D-51]
0.6 to 2	1 to 10	–	–	Cc1cc(N2CCCOC[C@@H]2c2cc(N3CC[C@H](O)C3)ccc2Cl)nc(N)n1 [D-64]
< 0.6	< 1	–	–	Cc1cc(N2CCCOC[C@@H]2c2cc(O)c(C(=O)N(C)C)cc2Cl)nc(N)n1 [D-117]
≥ 5	10 to 25	–	–	Cc1cc(N2CCCOC[C@H]2c2cc(O)c(OC(F)F)cc2Cl)nc(N)n1 [D-56]
0.6 to 2	1 to 10	–	–	CCC(=O)Nc1cc(Cl)c(C2COCCCN2c2cc(C)nc(N)n2)cc1C [D-12]
0.6 to 2	1 to 10	–	–	COc1cc(N2CCCOCC2c2cc(C)nc(N)n2)c(Cl)cc1OCC(=O)Nc1ccccc1 [D-39]
0.6 to 2	1 to 10	–	–	COc1cc(C2COCCCN2c2cc(C)nc(N)n2)c(Cl)cc1OCCCC#N [D-18]
2 to 5	10 to 25	–	–	Cc1cc(N2CCCOCC2c2cc(OC(F)F)c(Cl)cc2Cl)nc(N)n1 [D-11]
< 0.6	< 1	–	–	Cc1cc(N2CCCOCC2c2ccc(O)cc2C(F)(F)F)nc(N)n1 [D-111]
< 0.6	< 1	–	–	CCc1cc(N2CCCOCC2c2ccc(CS(C)(=O)=O)cc2Cl)nc(N)n1 [D-52]
< 0.6	< 1	–	–	Cc1cc(N2CCCOCC2c2cc(CN)c(C)cc2Cl)nc(N)n1 [D-46]
< 0.6	≥ 25	–	–	CNc1cc(Cl)c([C@@H]2COCCCN2c2cc(C)nc(N)n2)cc1C [D-25]
0.6 to 2	1 to 10	–	–	COc1cc(C2COCCCN2c2cc(C)nc(N)n2)c(Cl)cc1N1CCOCC1 [D-19]
< 0.6	< 1	–	–	Cc1cc(N2CCCOC[C@H]2c2ccc(NC(=O)C3(F)CCOC3)cc2Cl)nc(N)n1 (stereo partly drawn) [D-58]
< 0.6	< 1	–	–	COc1ccc([C@H]2COCCCN2c2cc(C)nc(N)n2)c(Cl)c1 [D-80]
< 0.6	1 to 10	–	–	CCOc1cc(C2COCCCN2c2cc(C)nc(N)n2)c(Cl)cc1O [D-21]
< 0.6	≥ 25	–	–	Cc1cc(N2CCCOC[C@H]2c2ccc(N)cc2Cl)nc(N)n1 [D-29]
≥ 5	≥ 25	–	–	Cc1cc(N2CCCOC[C@H]2c2ccc(OS(C)(=O)=O)cc2OC(F)(F)F)nc(N)n1 [D-158]
< 0.6	< 1	–	–	CNc1cc(Cl)c([C@H]2COCCCN2c2cc(C)nc(N)n2)cc1C [D-26]
< 0.6	≥ 25	–	–	Cc1cc(N2CCCOCC2c2cc(O)c(C(=O)O)cc2Cl)nc(N)n1 [D-23]
< 0.6	< 1	–	–	Cc1cc(N2CCCOCC2c2ccc(CS(C)(=O)=O)cc2Cl)nc(N)n1 [D-55]
< 0.6	< 1	–	–	Cc1cc(N2CCCOC[C@@H]2c2ccc(CS(C)(=O)=O)cc2OC(F)(F)F)nc(N)n1 [D-41]
< 0.6	≥ 25	–	–	COc1cc(F)c(F)cc1[C@H]1COCCCN1c1cc(C)nc(N)n1 [D-4]
< 0.6	< 1	–	–	Cc1cc(N2CCCOC[C@H]2c2cc(N3CC[C@H](O)C3)ccc2Cl)nc(N)n1 [D-63]

IC50 [1] [µM]	IC50 [2] [µM]	IC50 [3] [µM]	EC50 [1] [µM]	SMILES
< 0.6	< 1	–	–	Cc1cc(N2CCCOC[C@@H]2c2ccc(CS(C)(=O)=O)cc2OC(F)F)nc(N)n1 [D-22]
0.6 to 2	1 to 10	–	–	COc1cc(F)c(F)cc1[C@@H]1COCCCN1c1cc(C)nc(N)n1 [D-5]
< 0.6	< 1	–	–	Cc1cc(N2CCCOC[C@@H]2c2cc(N)c(C(F)(F)F)cc2Cl)nc(N)n1 [D-10]
≥ 5	≥ 25	–	–	COc1cc([C@@H]2COCCCN2c2cc(C)nc(N)n2)c(Cl)cc1OCC#N [D-159]
2 to 5	10 to 25	–	–	CCOC(=O)Cc1cc(C2COCCCN2c2cc(C)nc(C)n2)c(Cl)cc1C#N [D-35]
≥ 5	≥ 25	–	–	Cc1cc(N2CCCOC[C@H]2c2cc3c(cc2Cl)OCC(C)(C)CO3)nc(N)n1 [D-154]
–	–	0.3 to 1	0.6 to 2	CC(=O)Nc1cc(C2COCCCN2c2cc(C)nc(N)n2)c(Cl)cc1F (racemic) [I-85, N-[5-[4-(2-amino-6-methyl-pyrimidin-4-yl)-1,4-oxazepan-3-yl]-4-chloro-2-fluoro-phenyl]acetamide]
–	–	0.3 to 1	< 0.6	COc1cc(S(C)(=O)=O)ccc1[C@@H]1CCCCCN1c1cc(C)nc(N)n1 (single isomer, unassigned) [I-98, 4-[2-(2-methoxy-4-methylsulfonyl-phenyl)azepan-1-yl]-6-methyl-pyrimidin-2-amine]
–	–	< 0.3	< 0.6	Cc1cc(N2CCCOC[C@@H]2c2ccc(NC3CN(C(=O)OC(C)(C)C)C3)cc2Cl)nc(N)n1 [I-256, Tert-butyl 3-[4-[(3S)-4-(2-amino-6-methyl-pyrimidin-4-yl)-1,4-oxazepan-3-yl]-3-chloro-anilino]azetidine-1-carboxylate]
–	–	< 0.3	< 0.6	Cc1cc(N2CCCCC[C@H]2c2ccccc2Br)nc(N)n1 (single isomer, unassigned) [I-3]
–	–	< 0.3	< 0.6	Cc1cc(N2CCCOC[C@@H]2c2ccc(NC3CC3)cc2Cl)nc(N)n1 [I-248, 4-[(3S)-3-[2-chloro-4-(cyclopropylamino)phenyl]-1,4-oxazepan-4-yl]-6-methyl-pyrimidin-2-amine]
–	–	< 0.3	< 0.6	Cc1cc(N2CCCOC[C@@H]2c2ccc(OC[C@@H](C)O)cc2Cl)nc(N)n1 (single isomer, unassigned) [I-265]
–	–	0.3 to 1	2 to 5	COc1ccc(F)cc1[C@@H]1CCCCCN1c1cc(C)nc(N)n1 [I-285]
–	–	< 0.3	< 0.6	Cc1cc(N2CCCOCC2c2cc(NC(=O)C(F)F)ccc2Cl)nc(N)n1 (racemic) [I-250, (+/−)-N-(3-(4-(2-amino-6-methylpyrimidin-4-yl)-1,4-oxazepan-3-yl)-4-chlorophenyl)-2,2-difluoroacetamide]
–	–	0.3 to 1	< 0.6	Cc1cc(N2CCCOCC2c2ccc(NC(=O)C(C)(F)F)cc2Cl)nc(N)n1 (racemic) [I-228, (+/−)-N-(4-(4-(2-amino-6-methylpyrimidin-4-yl)-1,4-oxazepan-3-yl)-3-chlorophenyl)-2,2-difluoropropanamide]
–	–	< 0.3	< 0.6	Cc1cc(N2CCCOCC2c2ccc(C(CO)CO)cc2Cl)nc(N)n1 (racemic) [I-236, (+/−)-2-(4-(4-(2-amino-6-methylpyrimidin-4-yl)-1,4-oxazepan-3-yl)-3-chlorophenyl)propane-1,3-diol]
–	–	0.3 to 1	< 0.6	Cc1cc(N2CCCCCC2c2ccccc2Br)nc(N)n1 (stereo not drawn) [I-69]
–	–	< 0.3	< 0.6	Cc1cc(N2CCCOCC2c2ccc(NC3COC3)cc2Cl)nc(N)n1 (stereo not drawn) [I-302]
–	–	< 0.3	0.6 to 2	Cc1cc(N2CCCOCC2c2ccc(OCC3(CO)CC3)cc2Cl)nc(N)n1 (racemic) [I-233, (+/−)-[1-[[4-[4-(2-amino-6-methyl-pyrimidin-4-yl)-1,4-oxazepan-3-yl]-3-chloro-phenoxy]methyl]-cyclopropyl]methanol]
–	–	< 0.3	< 0.6	Cc1cc(N2CCCOC[C@@H]2c2ccc(NCC3(O)CCC3)cc2Cl)nc(N)n1 [I-263, 1-[[4-[(3S)-4-(2-amino-6-methyl-pyrimidin-4-yl)-1,4-oxazepan-3-yl]-3-chloro-anilino]methyl]-cyclobutanol]
–	–	< 0.3	< 0.6	Cc1cc(N2CCCOCC2c2cc(NC(=O)C3CC3)ccc2Cl)nc(N)n1 (racemic) [I-241, (+/−)-N-[3-[4-(2-amino-6-methyl-pyrimidin-4-yl)-1,4-oxazepan-3-yl]-4-chloro-phenyl]cyclopropanecarboxamide]
–	–	< 0.3	< 0.6	Cc1cc(N2CCCCC[C@H]2c2ccccc2Cl)nc(N)n1 (single isomer, unassigned) [I-14]
–	–	< 0.3	< 0.6	Cc1cc(N2CCCOCC2c2ccc(C3CCCO3)cc2Cl)nc(N)n1 (racemic) [I-235, (+/−)-4-(3-(2-chloro-4-(tetrahydrofuran-2-yl)phenyl)-1,4-oxazepan-4-yl)-6-methylpyrimidin-2-amine]
–	–	0.3 to 1	0.6 to 2	Cc1cc(N2CCCOCC2c2ccc(NC(=O)C3(C)COC3)cc2Cl)nc(N)n1 (racemic) [I-282, (+/−)-N-(4-(4-(2-amino-6-methylpyrimidin-4-yl)-1,4-oxazepan-3-yl)-3-chlorophenyl)-3-methyloxetane-3-carboxamide]
–	–	< 0.3	< 0.6	Cc1cc(N2CCCOC[C@H]2c2ccc(NC(=O)C(C)(C)O)cc2Cl)nc(N)n1 (racemic) [I-277, (+/−)-N-(4-(4-(2-amino-6-methylpyrimidin-4-yl)-1,4-oxazepan-3-yl)-3-chlorophenyl)-2-hydroxy-2-methylpropanamide]
–	–	< 0.3	< 0.6	Cc1cc(N2CCCOC[C@@H]2c2ccc(NCC3(C)COC3)cc2Cl)nc(N)n1 [I-240, 4-[(3S)-3-[2-chloro-4-[(3-methyloxetan-3-yl)methylamino]phenyl]-1,4-oxazepan-4-yl]-6-methyl-pyrimidin-2-amine]
–	–	< 0.3	< 0.6	Cc1cc(N2CCCOCC2c2ccc(C3CCCN3)cc2Cl)nc(N)n1 (racemic) [I-267]
